SMILES strings stand for the structures. Active and inactive are the calls of the source. The calls are words filed in the database; no cut-off is given here.

From ChEMBL document CHEMBL1153705, “Evaluation and optimization of antifibrotic activity of cinnamoyl anthranilates” (Bioorg Med Chem Lett, 2009) come the findings set out here.

The test system of data set [1] is 1097. Description: Antifibrotic activity in rat 1097 cells assessed as necrotic cells at 30 uM. The data set is classed as functional, cell-based.
The subject of data set [2] is 1097. The experiment in a line: Antifibrotic activity in rat 1097 cells assessed as necrotic cells at 100 uM. The data set is classed as functional, cell-based.
Data set [3] is filed under the species Rattus norvegicus. The experiment in a line: Antifibrotic activity in rat 1097 cells assessed as damaged cells at 100 uM. The data set is classed as functional, cell-based.
Data set [4] in a line: Antifibrotic activity in rat 1097 cells assessed as inhibition of TGF-beta-stimulated [3H]proline incorporation in to collagen at 30 uM. The data set is classed as functional.
Data set [5] in a line: (§1) Antifibrotic activity in rat 1097 cells assessed as inhibition of TGF-beta-stimulated [3H]proline incorporation in to collagen at 100 uM. In kind it is functional.
For data set [6], the system named is Rattus norvegicus. Description: Reduction in albuminuria in STZ-induced Ren2 rat at 400 mg/kg/day after 24 hrs by radioimmunoassay. In kind it is functional, organism-based.
For data set [7], the system named is Rattus norvegicus. The experiment in a line: Reduction in albuminuria in STZ-induced Ren2 rat at 200 mg/kg/day after 24 hrs by radioimmunoassay. The data set is classed as functional, organism-based.
Data set [8] is filed under the species Rattus norvegicus. Described as §1. In kind it is functional.
Data set [9] in a line: Toxicity against rat 1097 cells at 30 uM. The data set is classed as cell-based.
Data set [10] can be described thus: Toxicity against rat 1097 cells at 100 uM. The data set is classed as cell-based.
Data set [11] in a line: Antifibrotic activity in rat 1097 cells assessed as inhibition of TGF-beta-stimulated [3H]proline incorporation in to collagen at 10 uM. In kind it is functional.

On to `CCCCC#CCCOc1cc(/C=C/C(=O)Nc2ccccc2C(=O)O)ccc1OC`, for which the result with 1097 [1] and in the data set on 1097 [2] was Active.
On to `C#CCCCCOc1ccc(/C=C/C(=O)Nc2ccccc2C(=O)O)cc1OC`, for which the result in the data set filed under Rattus norvegicus [3] was Active. Also, the inhibition at 30 µM in data set [4] was determined as 80%.
`COc1ccc(/C=C/C(=O)Nc2ccccc2C(N)=O)cc1OC`: the inhibition at 100 µM in data set [5] came to 35%.
For the molecule `C#CCCCOc1cc(/C=C/C(=O)Nc2ccccc2C(=O)O)ccc1OC`, in the data set listed under Rattus norvegicus [3], the outcome was Active. The inhibition at 30 µM in [4] amounted to 80%.
Turning to `C#CCCOc1ccc(/C=C/C(=O)Nc2ccccc2C(=O)O)cc1OC`, in [4], the inhibition at 30 µM came out at 70%. Further, the inhibition at 100 µM in [5] was found to be 100%.
The like results for `CC#CCOc1cc(/C=C/C(=O)Nc2ccccc2C(=O)O)ccc1OC` were, in that order, 75% and 80%.
The like results for `C#CCCCOc1ccc(/C=C/C(=O)Nc2ccccc2C(=O)O)cc1OC` were, in that order, 75% and 100%.
For `COc1cc(/C=C/C(=O)Nc2ccccc2C(=O)O)ccc1O`, the inhibition at 100 µM in data set [5] came out at 50%.
`CCC#CCCOc1cc(/C=C/C(=O)Nc2ccccc2C(=O)O)ccc1OC`: in data set [4], the inhibition at 30 µM came out at 100%. Further, the inhibition at 100 µM in data set [5] came out at 100%.
In the case of `C#CCOc1cc(/C=C/C(=O)Nc2ccccc2C(=O)O)ccc1OC`, in [4], the inhibition at 30 µM is 60%. In data set [5], the inhibition at 100 µM is 90%.
For `C#CCOc1ccc(/C=C/C(=O)Nc2ccccc2C(=O)O)cc1OC` [ASENGEPRAST], in data set [4], the inhibition at 30 µM turned out to be 55%. Also, in data set [5], the inhibition at 100 µM stood at 80%. Also, the outcome with Rattus norvegicus [6] and in the data set with Rattus norvegicus [7] was Active.
Turning to `CC#CCOc1ccc(/C=C/C(=O)Nc2ccccc2C(=O)O)cc1OC`, the inhibition at 30 µM in data set [4] came to 65%. For the same molecule, in [5], the inhibition at 100 µM was 90%.
Turning to `COc1ccc(/C=C/C(=O)Nc2ccccc2)cc1OC`, in data set [5], the inhibition at 100 µM worked out at 50%.
Consider `COc1cc(/C=C/C(=O)Nc2ccccc2C(=O)O)ccc1OC1CCCCC1`, for which the result in the data set on 1097 [1] and in the data set with 1097 [2] was Active.
Take `COc1ccc(/C=C/C(=O)Nc2ccccc2C(=O)O)cc1O`: the inhibition at 100 µM in data set [5] turned out to be 50%.
Turning to `CCCCC#CCCOc1ccc(/C=C/C(=O)Nc2ccccc2C(=O)O)cc1OC`, the result in the data set on 1097 [1] was Active.
For `CCC#CCCOc1ccc(/C=C/C(=O)Nc2ccccc2C(=O)O)cc1OC`, the result in the data set filed under Rattus norvegicus [3] was Active. Also, in [4], the inhibition at 30 µM was 100%.
As for `COc1ccc(/C=C/C(=O)Nc2ccccc2C(=O)O)cc1`, the inhibition entry in the data set filed under Rattus norvegicus [8] was “inactive”.
`O=C(/C=C/c1ccccc1)Nc1ccccc1C(=O)O`: the inhibition result in the data set listed under Rattus norvegicus [8] is “inactive”.
For the molecule `C#CCCOc1cc(/C=C/C(=O)Nc2ccccc2C(=O)O)ccc1OC`, in the data set filed under Rattus norvegicus [3], the result was Active. Besides, in data set [4], the inhibition at 30 µM was found to be 65%.
For `COc1ccc(CCC(=O)Nc2ccccc2C(=O)O)cc1OC`, the inhibition result in the data set filed under Rattus norvegicus [8] was “inactive”.
With `CCC#CCOc1cc(/C=C/C(=O)Nc2ccccc2C(=O)O)ccc1OC`, in data set [4], the inhibition at 30 µM was 90%. In addition, the Activity result in data set [9] was “Non-toxic”; in data set [10], “Toxic”. Further, the inhibition at 100 µM in data set [5] amounted to 100%.
In the case of `COc1cccc(/C=C/C(=O)Nc2ccccc2C(=O)O)c1`, in data set [5], the inhibition at 100 µM was 40%.
Turning to `COc1ccc(/C=C/C(=O)Nc2ccccc2C(=O)O)cc1OC` [TRANILAST], the inhibition at 30 µM in [4] was found to be 40%. Besides, the inhibition at 100 µM in data set [5] came to 70%.
`COc1cc(/C=C/C(=O)Nc2ccccc2C(=O)O)ccc1OC1CCCC1`: the outcome in the data set filed under Rattus norvegicus [3] was Active. Moreover, the inhibition at 30 µM in [4] worked out at 100%. Further, the Activity result is “Non-toxic” in data set [9] and “Toxic” in [10].
Turning to `COc1cc(/C=C/C(=O)Nc2ccccc2C(=O)O)ccc1OC1CCCCCCC1`, the outcome with 1097 [1] and in the data set with 1097 [2] was Active.
For `C#CCCCCOc1cc(/C=C/C(=O)Nc2ccccc2C(=O)O)ccc1OC`, in [4], the inhibition at 30 µM is 95%. The inhibition at 100 µM in data set [5] stood at 100%.
Regarding `O=C(/C=C/c1ccc(O)c(O)c1)Nc1ccccc1C(=O)O`, the inhibition at 100 µM in data set [5] was 90%.
Regarding `COc1cc(/C=C/C(=O)Nc2ccccc2C(=O)O)ccc1OC1CCC1`, the outcome in the data set listed under Rattus norvegicus [3] was Active. Also, in data set [11], the inhibition at 10 µM stood at 60%.
`COc1cc(/C=C/C(=O)Nc2ccccc2C(=O)O)ccc1OC1CCCCCC1`: the outcome in the data set on 1097 [1] and in the data set on 1097 [2] was Active.
Take `CCC#CCOc1ccc(/C=C/C(=O)Nc2ccccc2C(=O)O)cc1OC`: in data set [4], the inhibition at 30 µM was found to be 100%. For the same molecule, the Activity entry in data set [9] was “Non-toxic”; in [10], “Toxic”. Further, the inhibition at 100 µM in [5] turned out to be 100%.

For orientation: inhibition means the change of the read-out against control, counted positive when it falls.
